Test results published in patent US20250230193A1, “CYCLIC COMPOUND HAVING SELECTIVE KRAS INHIBITORY EFFECT ON HRAS AND NRAS” (CHUGAI SEIYAKU KABUSHIKI KAISHA, priority 2022, published 2025).

What was measured:
[1] = molecular target: GDP-bound NRAS wild-type protein (Homo sapiens, UniProt P01111); experiment: Binding to NRAS by surface plasmon resonance (SPR), Single Cycle Kinetics; details: KD ratio, GDP-bound NRAS wild-type vs GDP-bound KRAS wild-type, SPR
[2] = molecular target: GDP-bound HRAS wild-type protein (Homo sapiens, UniProt P01112); experiment: Binding to HRAS by surface plasmon resonance (SPR), Single Cycle Kinetics; details: KD ratio, GDP-bound HRAS wild-type vs GDP-bound KRAS wild-type, SPR
GDP-bound HRAS wild-type protein, sequence (P01112 whole entry): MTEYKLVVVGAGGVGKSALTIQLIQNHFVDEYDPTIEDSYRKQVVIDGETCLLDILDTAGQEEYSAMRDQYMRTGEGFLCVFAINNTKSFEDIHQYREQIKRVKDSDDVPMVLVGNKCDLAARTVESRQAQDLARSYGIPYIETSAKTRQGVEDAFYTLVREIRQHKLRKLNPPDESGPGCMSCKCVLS

GDP-bound NRAS wild-type protein, sequence (P01111 whole entry): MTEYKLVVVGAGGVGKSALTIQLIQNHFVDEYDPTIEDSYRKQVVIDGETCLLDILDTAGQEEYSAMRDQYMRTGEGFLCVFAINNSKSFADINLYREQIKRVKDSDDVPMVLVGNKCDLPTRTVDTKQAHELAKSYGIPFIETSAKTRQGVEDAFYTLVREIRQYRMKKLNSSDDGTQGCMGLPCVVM

Compound: CCO[C@@H]1C[C@H]2C(=O)NC3(CCC3)C(=O)N(C)[C@@H](C3CCCC3)C(=O)N(C)[C@H](C(=O)N(C)C)CC(=O)N(C)[C@@H](Cc3cccc(F)c3)C(=O)N[C@@H]([C@@H](C)CC)C(=O)N(C)CC(=O)N(C)[C@H]3C/C=C\CCN(C3=O)[C@@H](Cc3ccc(C(F)(F)F)cc3)C(=O)N(C)CC(=O)N[C@@H](CCc3cc(F)c(C(F)(F)F)c(F)c3)C(=O)N2C1 [PP1126]
- NRAS/KRAS (ratio of KD value with respect to NRAS to KD value with respect to KRAS) [1]: A (a compound having 10 or more and less than 20 is denoted as A)
- HRAS/KRAS (ratio of KD value with respect to HRAS to KD value with respect to KRAS) [2]: A (a compound having 10 or more and less than 20 is denoted as A)

Compound: CCO[C@@H]1C[C@H]2C(=O)NC3(CCC3)C(=O)N(C)[C@@H](C3CCCC3)C(=O)N(C)[C@H](C(=O)N(C)C)CC(=O)N(C)[C@@H](Cc3cccc(Cl)c3)C(=O)N[C@@H]([C@@H](C)CC)C(=O)N(C)CC(=O)N(C)[C@H]3C/C=C\CCN(C3=O)[C@@H](Cc3ccc(C(F)(F)F)cc3)C(=O)N(C)CC(=O)N[C@@H](CCc3cc(F)c(C(F)(F)F)c(F)c3)C(=O)N2C1 [PP1127]
- NRAS/KRAS (ratio of KD value with respect to NRAS to KD value with respect to KRAS) [1]: AA (a compound having 20 or more is denoted as AA)
- HRAS/KRAS (ratio of KD value with respect to HRAS to KD value with respect to KRAS) [2]: A (a compound having 10 or more and less than 20 is denoted as A)

Compound: CC[C@H](C)[C@@H]1NC(=O)[C@H](CC)N(C)C(=O)C[C@@H](C(=O)N(C)C)N(C)C(=O)[C@H](C2CCCC2)N(C)C(=O)C2(CCC2)NC(=O)[C@@H]2C[C@H](OC)CN2C(=O)[C@H](CCc2cc(F)c(C(F)(F)F)c(F)c2)NC(=O)CN(C)C(=O)[C@H](Cc2ccc(C(F)(F)F)cc2)N2CC/C=C\C[C@@H](C2=O)N(C)C(=O)CN(C)C1=O [PP1128]
- NRAS/KRAS (ratio of KD value with respect to NRAS to KD value with respect to KRAS) [1]: AA (a compound having 20 or more is denoted as AA)
- HRAS/KRAS (ratio of KD value with respect to HRAS to KD value with respect to KRAS) [2]: A (a compound having 10 or more and less than 20 is denoted as A)

Compound: CC[C@H](C)[C@@H]1NC(=O)[C@H](CC)N(C)C(=O)C[C@@H](C(=O)N(C)C)N(C)C(=O)[C@H](C2CCCC2)N(C)C(=O)C2(CCC2)NC(=O)[C@@H]2CC(F)(F)CN2C(=O)[C@H](CCc2cc(F)c(C(F)(F)F)c(F)c2)NC(=O)CN(C)C(=O)[C@H](Cc2ccc(C(F)(F)F)cc2)N2CC/C=C\C[C@@H](C2=O)N(C)C(=O)CN(C)C1=O [PP1129]
- NRAS/KRAS (ratio of KD value with respect to NRAS to KD value with respect to KRAS) [1]: A (a compound having 10 or more and less than 20 is denoted as A)
- HRAS/KRAS (ratio of KD value with respect to HRAS to KD value with respect to KRAS) [2]: B (a compound having 3 or more and less than 10 is denoted as B)

Compound: CC[C@H](C)[C@@H]1NC(=O)[C@H](CC)N(C)C(=O)C[C@@H](C(=O)N(C)C)N(C)C(=O)[C@H](C2CCCC2)N(C)C(=O)C2(CCC2)NC(=O)[C@@H]2C[C@@H](OC)CN2C(=O)[C@H](CCc2cc(F)c(C(F)(F)F)c(F)c2)NC(=O)CN(C)C(=O)[C@H](Cc2ccc(C(F)(F)F)cc2)N2CC/C=C\C[C@@H](C2=O)N(C)C(=O)CN(C)C1=O [PP1130]
- NRAS/KRAS (ratio of KD value with respect to NRAS to KD value with respect to KRAS) [1]: A (a compound having 10 or more and less than 20 is denoted as A)
- HRAS/KRAS (ratio of KD value with respect to HRAS to KD value with respect to KRAS) [2]: B (a compound having 3 or more and less than 10 is denoted as B)

Compound: CC[C@H](C)[C@@H]1NC(=O)[C@H](CC)N(C)C(=O)C[C@@H](C(=O)N(C)C)N(C)C(=O)[C@H](C2CCCC2)N(C)C(=O)C2(CCC2)NC(=O)[C@@H]2C[C@@H](F)CN2C(=O)[C@H](CCc2cc(F)c(C(F)(F)F)c(F)c2)NC(=O)CN(C)C(=O)[C@H](Cc2ccc(C(F)(F)F)cc2)N2CC/C=C\C[C@@H](C2=O)N(C)C(=O)CN(C)C1=O [PP1131]
- NRAS/KRAS (ratio of KD value with respect to NRAS to KD value with respect to KRAS) [1]: A (a compound having 10 or more and less than 20 is denoted as A)
- HRAS/KRAS (ratio of KD value with respect to HRAS to KD value with respect to KRAS) [2]: B (a compound having 3 or more and less than 10 is denoted as B)

Compound: CC[C@H](C)[C@@H]1NC(=O)[C@H](CC)N(C)C(=O)C[C@@H](C(=O)N(C)C)N(C)C(=O)[C@H](C2CCCC2)N(C)C(=O)C2(CCC2)NC(=O)[C@@H]2C[C@H](F)CN2C(=O)[C@H](CCc2cc(F)c(C(F)(F)F)c(F)c2)NC(=O)CN(C)C(=O)[C@H](Cc2ccc(C(F)(F)F)cc2)N2CC/C=C\C[C@@H](C2=O)N(C)C(=O)CN(C)C1=O [PP1132]
- NRAS/KRAS (ratio of KD value with respect to NRAS to KD value with respect to KRAS) [1]: A (a compound having 10 or more and less than 20 is denoted as A)
- HRAS/KRAS (ratio of KD value with respect to HRAS to KD value with respect to KRAS) [2]: B (a compound having 3 or more and less than 10 is denoted as B)

Compound: CC[C@H](C)[C@@H]1NC(=O)[C@H](CC)N(C)C(=O)C[C@@H](C(=O)N(C)C)N(C)C(=O)[C@H](C2CCCC2)N(C)C(=O)C2(CCC2)NC(=O)[C@@H]2C[C@@H](C(F)(F)F)CN2C(=O)[C@H](CCc2cc(F)c(C(F)(F)F)c(F)c2)NC(=O)CN(C)C(=O)[C@H](Cc2ccc(C(F)(F)F)cc2)N2CC/C=C\C[C@@H](C2=O)N(C)C(=O)CN(C)C1=O [PP1133]
- NRAS/KRAS (ratio of KD value with respect to NRAS to KD value with respect to KRAS) [1]: A (a compound having 10 or more and less than 20 is denoted as A)
- HRAS/KRAS (ratio of KD value with respect to HRAS to KD value with respect to KRAS) [2]: A (a compound having 10 or more and less than 20 is denoted as A)

Compound: CC[C@H](C)[C@@H]1NC(=O)[C@H](CC)N(C)C(=O)C[C@@H](C(=O)N(C)C)N(C)C(=O)[C@H](C2CCCC2)N(C)C(=O)C2(CCC2)NC(=O)[C@@H]2C[C@H](C)CN2C(=O)[C@H](CCc2cc(F)c(C(F)(F)F)c(F)c2)NC(=O)CN(C)C(=O)[C@H](Cc2ccc(C(F)(F)F)cc2)N2CC/C=C\C[C@@H](C2=O)N(C)C(=O)CN(C)C1=O [PP1134]
- NRAS/KRAS (ratio of KD value with respect to NRAS to KD value with respect to KRAS) [1]: A (a compound having 10 or more and less than 20 is denoted as A)
- HRAS/KRAS (ratio of KD value with respect to HRAS to KD value with respect to KRAS) [2]: B (a compound having 3 or more and less than 10 is denoted as B)

Compound: CC[C@H](C)[C@@H]1NC(=O)[C@H](CC)N(C)C(=O)C[C@@H](C(=O)N(C)C)N(C)C(=O)[C@H](C2CCCC2)N(C)C(=O)C2(CCC2)NC(=O)[C@@H]2CCCN2C(=O)[C@H](CCc2cc(F)c(C(F)(F)F)c(F)c2)NC(=O)CN(C)C(=O)[C@H](Cc2ccc(C(F)(F)F)cc2)N2CC/C=C\C[C@@H](C2=O)N(C)C(=O)CN(C)C1=O [PP1135]
- NRAS/KRAS (ratio of KD value with respect to NRAS to KD value with respect to KRAS) [1]: A (a compound having 10 or more and less than 20 is denoted as A)
- HRAS/KRAS (ratio of KD value with respect to HRAS to KD value with respect to KRAS) [2]: A (a compound having 10 or more and less than 20 is denoted as A)

Compound: CC[C@H](C)[C@@H]1NC(=O)[C@H](CC)N(C)C(=O)C[C@@H](C(=O)N(C)C)N(C)C(=O)[C@H](C2CCCC2)N(C)C(=O)C2(CCC2)NC(=O)[C@@H]2CCCCN2C(=O)[C@H](CCc2cc(F)c(C(F)(F)F)c(F)c2)NC(=O)CN(C)C(=O)[C@H](Cc2ccc(C(F)(F)F)cc2)N2CC/C=C\C[C@@H](C2=O)N(C)C(=O)CN(C)C1=O [PP1136]
- NRAS/KRAS (ratio of KD value with respect to NRAS to KD value with respect to KRAS) [1]: A (a compound having 10 or more and less than 20 is denoted as A)
- HRAS/KRAS (ratio of KD value with respect to HRAS to KD value with respect to KRAS) [2]: A (a compound having 10 or more and less than 20 is denoted as A)

Compound: CC[C@H](C)[C@@H]1NC(=O)[C@H](CC)N(C)C(=O)C[C@@H](C(=O)N(C)C)N(C)C(=O)[C@H](C2CCCC2)N(C)C(=O)C2(CCC2)NC(=O)[C@@H]2CSCCN2C(=O)[C@H](CCc2cc(F)c(C(F)(F)F)c(F)c2)NC(=O)CN(C)C(=O)[C@H](Cc2ccc(C(F)(F)F)cc2)N2CC/C=C\C[C@@H](C2=O)N(C)C(=O)CN(C)C1=O [PP1137]
- NRAS/KRAS (ratio of KD value with respect to NRAS to KD value with respect to KRAS) [1]: AA (a compound having 20 or more is denoted as AA)
- HRAS/KRAS (ratio of KD value with respect to HRAS to KD value with respect to KRAS) [2]: A (a compound having 10 or more and less than 20 is denoted as A)
